Test results reported in patent US11759474B2, “Use of SGLT-2 inhibitors in the drying-off of non-human mammals” (Boehringer Ingelheim Vetmedica GmbH, priority 2020, dated 2023).

Key:
[1] = Velagliflozin plasma levels after single i.v. dosing in lactating cows; assay type: in vivo, Holstein-Frisian cows; details: i.v. 0.03, 0.3, 3 mg/kg bodyweight, n=4 lactating cows; FIG. 1
Protocol: (§1) Velagliflozin treatment is tested in n=4 lactating Holstein-Frisian cows. In weekly intervals, velagliflozin is administered intravenously (i.v.) in increasing doses (0.03 mg/kg bodyweight-0.3 mg/kg bodyweight-3 mg/kg bodyweight) in the morning after AM (ante meridian) milking into the right jugular vein in a volume of 2.5 ml of a propylene glycol based solution per 100 kg body weight. Blood samples for determination of velagliflozin plasma levels and urine samples for determination of glucose and creatinine levels are collected one day prior to treatment and ˜8 hours, ˜24 hours and ˜48 hours post treatment and stored frozen until being analysed. Blood glucose and ketone body (beta-hydroxy-butyrate) concentrations are determined immediately after blood collection at the same time points. The total urinary creatinine excreted per day is rather constant in mammals, thus, since urine volume was not determined, the glucose to creatinine ratio was calculated as a surrogate of the total glucose excretion. All animals are milked twice daily, in the morning (ante meridian—AM) and in the late afternoon (post meridian—PM). Throughout the study, milk yield is recorded as kg per animal per milking.

[2] = tested on: lactating Holstein-Frisian cows; assay: Urinary glucose excretion normalized to urinary creatinine after single i.v. dosing in lactating cows; assay type: in vivo; details: i.v. 0.03, 0.3, 3 mg/kg bodyweight; urine ~8 h, ~24 h, ~48 h post treatment; FIG. 1
Protocol: as §1

[3] = tested on: lactating Holstein-Frisian cows; assay: Milk yield per milking after single i.v. dosing in lactating cows; assay type: in vivo; details: i.v. 0.03, 0.3, 3 mg/kg bodyweight after AM milking; PM milking about 8 hours after administration; FIG. 2
Protocol: as §1

[4] = Blood glucose and ketone body (beta-hydroxy-butyrate) concentrations after treatment in lactating cows; assay type: in vivo, Holstein-Frisian cows; details: after treatment with all dosages (0.03, 0.3, 3 mg/kg bodyweight i.v.)
Protocol: as §1

- Velagliflozin plasma level [1]: linear dose to exposure relationship
- blood glucose level [4]: within normal reference ranges
- ketone body level ([4]; beta-hydroxy-butyrate): within normal reference ranges
Compound: N#Cc1ccc([C@@H]2O[C@H](CO)[C@@H](O)[C@H](O)[C@H]2O)cc1Cc1ccc(C2CC2)cc1 [velagliflozin, Velagliflozin]
- urinary glucose excretion normalized to urinary creatinine [2]: increases in a dose/exposure dependent manner
- milk yield of the subsequent milking (PM) [3]: decreases in a dose/exposure dependent manner
